In publication PMC12135066, “Design and Preclinical Evaluation of Novel uPAR-Targeting Radiopeptides Modified with an Albumin-Binding Entity” (Molecular Pharmaceutics, 2025):
Where two headings read alike, the source gives them in different places.

What was measured:
human uPAR [1] = biological target: T1, human uPAR (Homo sapiens, UniProt Q03405); conditions: reported value; ref not printed (citation marks lost in b4); read-out: binding affinity to human uPAR (KD); cited from earlier work
T1 construct: host or cells: HEK cells (HEK-uPAR)
T1 sequence (Q03405 23-335): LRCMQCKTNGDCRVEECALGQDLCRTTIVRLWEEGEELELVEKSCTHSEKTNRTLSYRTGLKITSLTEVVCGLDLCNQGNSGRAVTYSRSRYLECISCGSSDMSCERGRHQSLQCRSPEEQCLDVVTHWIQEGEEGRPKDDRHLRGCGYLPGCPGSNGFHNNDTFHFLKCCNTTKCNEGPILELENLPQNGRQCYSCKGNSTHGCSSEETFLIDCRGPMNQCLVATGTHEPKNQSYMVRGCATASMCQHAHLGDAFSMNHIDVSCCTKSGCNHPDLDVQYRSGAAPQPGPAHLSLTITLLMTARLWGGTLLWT
Procedure: The expression pattern of uPAR makes it a relevant tumor-associated marker for targeting with diagnostic and therapeutic radiopharmaceuticals. Previously, a synthetic uPAR-binding nonapeptide, referred to as AE105, was identified using phage display methodologies and affinity maturation techniques. , The reported strong binding affinity to human uPAR (K D = 0.4 nM) made AE105 an interesting candidate for the development of nuclear imaging agents and radiotherapeutics. , AE105 was conjugated with various macrocyclic chelators to enable the coordination of copper-64, gallium-68, and lutetium-177 ...

human uPAR [2] = biological target: T1, human uPAR; experiment: uPAR-binding affinity (KD values), saturation experiments with HEK-uPAR cells; conditions: saturation binding on HEK-uPAR cells, on ice (4 °C) 1 h, 1–1600 nM radiopeptide, ± AE105 40 µM; γ-counter; nonlinear regression; average ± SD, n=3
Procedure: To determine the uPAR-binding affinity of the radiopeptides, saturation experiments were performed using HEK-uPAR cells in 48-well plates (Supporting Information). The cells were incubated on ice for 1 h in the presence or absence of excess AE105 (final concentration of 40 μM) together with the respective radiopeptide at a concentration range of 1–1600 nM. After rinsing the cells with PBS, they were lysed with an aqueous NaOH solution (1 M, 600 μL), transferred to radioimmunoassay tubes, and measured in a γ-counter (1480 Wizard, PerkinElmer). The K D values were determined by plotting the specific binding (values of samples incubated without AE105 minus the values of samples incubated with AE105) against the molar concentration of the added peptide. A nonlinear regression analysis was performed using GraphPad Prism software (version 8.3.1). The results were expressed as average ± SD of n = 3 independently performed experiments. […]
7. Determination of uPAR-Binding Affinity (KD Values)
Purpose: The uPAR-binding affinity of the radiopeptides were determined to investigate the impact of structural changes on the receptor binding.
Methods: HEK-uPAR cells were seeded in poly-D-lysine-coated 48-well plates (0.25 × 10 6 in 0.5 mL per well) using DMEM cell culture medium with supplements. The cells were incubated at 37 °C and 5% CO2 overnight to allow adhesion and growth. After removing the supernatant, the well plates with HEK-uPAR cells were placed on ice to prevent internalization of the radiopeptides. The cells were rinsed with cold PBS (0.5 mL, pH 7.4) followed by the addition of DMEM cell culture medium without supplements (450 µL/well) in the presence or absence of AE105 ( final concentration 40 µM) as a receptor-blocking agent. The radiopeptides (5 MBq/nmol) were diluted in PBS to obtain peptide concentrations ranging from 10 ‒16000 nM. From each dilution, 50 µL were added to each well to obtain final peptide concentrations of 1 nM to 1600 nM. The cells were incubated at 4 °C for 1 h before rinsing twice with PBS (0.5 mL, pH 7.4). The cells were lysed using an aqueous NaOH solution (1 M, 600 µL) and the lysates were transferred to RIA tubes for counting the activity in a γ-counter (1480 Wizard, PerkinElmer) . The KD values were determined by plotting specific binding (total binding minus unspecific binding) against the molar concentration of the added radiopeptide using GraphPad Prism (version 8.3.1). the results were then expressed as average K D values ± SD of n = 3 independent […]
Results: The results are reported in the main article.

in vivo = conditions: female, mouse, total radioactivity
Procedure: (§1) All applicable international, national, and/or institutional guidelines for the care and use of laboratory animals were followed, and the herein reported experiments were carried out according to the guidelines of the Swiss Regulations for Animal Welfare. The preclinical studies were ethically approved by the Cantonal Committee of Animal Experimentation and permitted by the responsible cantonal authorities (License No. 75721). Five-week-old female CD1/nude (Crl:CD1-Foxn ^ nu ) and female immunocompetent FVB (FVB/NCrl) mice were obtained from Charles River Laboratories (Sulzfeld, Germany). All mice were acclimatized for at least 7 days, receiving standard rodent chow ad libitum before being included in the reported studies. The CD1/nude mice were subcutaneously inoculated with HEK-uPAR cells (7 × 10^6 cells in 100 μL PBS) on the right shoulder. […] Typically, it took 3–11 weeks to reach xenograft volumes of 40–600 mm^3 at the time of testing the tissue distribution of the radiopeptides. The immunocompetent FVB mice were used for testing the in vivo stability of the radiopeptides.
(§2) The mice were injected with the radiopeptides (5 MBq, 0.5 nmol, 100 μL) in saline containing 0.05% BSA and sacrificed at 4 and 24 h after injection of the radiopeptides. Selected tissues and organs were collected, weighed, and measured with the γ-counter (1480 Wizard, PerkinElmer). […] A p-value of <0.05 was considered a statistically significant difference (GraphPad Prism software, version 8.3.1).
(§3) Decay-corrected data is shown as average ± SD of n = 3 animals of % injected activity per gram (IA/g) tissue.

in vitro [3] = conditions: mouse, plasma
Procedure: (§4) The radiopeptides (50 MBq/nmol) stabilized with L-ascorbic acid were diluted in mouse and human blood plasma and incubated at 37 °C. Aliquots were taken after 1, 4, and 24 h and analyzed using reversed-phase thin-layer chromatography (TLC) (Supporting Information).
(§5) aProduct peak expressed as percentage of the sum of integrated peak areas of the entire chromatogram relative to
(§6) the value obtained immediately after labeling (set as 100%), average ± standard deviation (SD) (n=3).
(§7) Stability of the Radiopeptides in Mouse and Human Blood Plasma
(§8) Purpose: The stability of the radiopeptides was assessed in mouse and human blood plasma as an
indication for their in vivo stability.
(§9) Methods: The radiopeptides (50 MBq/nmol) stabilized with L-ascorbic acid were diluted in mouse
(§10) blood plasma (Lot: 32321, Rockland Immunochemicals Inc., U.S.A.) or in human blood plasma
(§11) (Stiftung Blutspende SRK Aargau -Solothurn, Switzerland) at a concentration of 10 MBq/200 µL and
(§12) incubated at 37 °C over a 24 h time period. Control samples were prepared by diluting the radiopeptides
(§13) in saline at the same activity concentration. Aliquots of each dilution were taken after 1 h, 4 h, and 24 h
(§14) (2 µL, ~100 kBq) and investigated employing thin layer chromatography (TLC) methods on reversed-
(§15) phase TLC plates (MERCK Analytical Chromatography, TLC Silica gel 60 RP -18 F254s) as stationary
(§16) phase and a 3/7 (v/v) mixture of acetonitrile /citrate buffer (0.1 M, pH 5.5) as mobile phase. A dilution
(§17) of [177Lu]LuCl3/HCl 0.04 M (10 MBq/200 µL) was added on each TLC plate. The developed and dried
(§18) TLC plates were exposed to a phosphor screen (Super resolution screen PSR10450013, PerkinElmer)
(§19) for 1 min. The screen was read with a Cyclone Plus phosphor imager (PerkinElmer) and the peak
(§20) quantification was performed using OptiQuant Software (version 5.0).

in vitro [4] = conditions: human, plasma
Procedure: as §4, §5, §6, §7, §8
indication for their in vivo stability.
as §9, §10, §11, §12, §13, §14, §15, §16, §17, §18, §19, §20

physchem = conditions: pH 7.4
[5] = tested on: HEK-uPAR xenograft-bearing nude mice; conditions: mouse, in vivo
Procedure: as §1, §2, §3

[6] = CD1/nude (Crl:CD1-Foxn nu), 0.5 nmol, Blood
[7] = CD1/nude, 5 MBq (0.5 nmol), Blood
[8] = CD1/nude, 5 MBq (0.5 nmol), Bone
[9] = CD1/nude, 5 MBq (0.5 nmol), Brain
[10] = CD1/nude, 5 MBq (0.5 nmol), HEK-uPAR xgft
[11] = CD1/nude, 5 MBq (0.5 nmol), Heart
[12] = CD1/nude, 5 MBq (0.5 nmol), Intestines
[13] = CD1/nude, 5 MBq (0.5 nmol), Kidneys
[14] = CD1/nude, 5 MBq (0.5 nmol), Liver
[15] = CD1/nude, 5 MBq (0.5 nmol), Lung
[16] = CD1/nude, 5 MBq (0.5 nmol), Muscle
[17] = CD1/nude, 5 MBq (0.5 nmol), Pancreas
[18] = CD1/nude, 5 MBq (0.5 nmol), Salivary glands
[19] = CD1/nude, 5 MBq (0.5 nmol), Spleen
[20] = CD1/nude, 5 MBq (0.5 nmol), Stomach
[21] = CD1/nude (Crl:CD1-Foxn nu), 0.5 nmol, HEK-uPAR xgft

Row | Molecule | Kd (human uPAR [2]) [nM] | tissue uptake at 24 h (in vivo; [6]) [%ID/g] | tissue uptake at 4 h (in vivo; [7]) [%ID/g] | tissue uptake at 4 h (in vivo; [8]) [%ID/g] | tissue uptake at 24 h (in vivo; [8]) [%ID/g] | tissue uptake at 4 h (in vivo; [9]) [%ID/g] | tissue uptake at 24 h (in vivo; [9]) [%ID/g] | tissue uptake at 4 h (in vivo; [11]) [%ID/g] | tissue uptake at 24 h (in vivo; [11]) [%ID/g] | tissue uptake at 4 h (in vivo; [12]) [%ID/g] | tissue uptake at 24 h (in vivo; [12]) [%ID/g] | tissue uptake at 4 h (in vivo; [13]) [%ID/g] | tissue uptake at 24 h (in vivo; [13]) [%ID/g] | tissue uptake at 4 h (in vivo; [14]) [%ID/g] | tissue uptake at 24 h (in vivo; [14]) [%ID/g] | tissue uptake at 4 h (in vivo; [15]) [%ID/g] | tissue uptake at 24 h (in vivo; [15]) [%ID/g] | tissue uptake at 4 h (in vivo; [16]) [%ID/g] | tissue uptake at 24 h (in vivo; [16]) [%ID/g] | tissue uptake at 4 h (in vivo; [17]) [%ID/g] | also measured
1 | Asp-Cha-Phe-ser-arg-Tyr-Leu-Trp-Ser (DAFSRYLWS; Printed as Asp-Cha-Phe-ser-arg-Tyr-Leu-Trp-Ser. Residue 2 is Cha (L-beta-cyclohexylalanine, written as parent Ala, as in PDB 1YWH entity 2); D-Ser4; D-Arg5; Linear; C-terminal form (acid or amide) not) [AE105] | – | – | – | – | – | – | – | – | – | – | – | – | – | – | – | – | – | – | – | – | Kd (human uPAR [1]): 0.4 nM
2 | CC(C)C[C@H](NC(=O)[C@H](Cc1ccc(O)cc1)NC(=O)[C@@H](CCCNC(=N)N)NC(=O)[C@@H](CO)NC(=O)[C@H](Cc1ccccc1)NC(=O)[C@H](CC1CCCCC1)NC(=O)[C@H](CC(=O)O)NC(=O)[C@H](CCCCNC(=O)CCOCCOCCOCCOCCNC(=O)c1ccc(CNC(=O)CCCc2ccc(I)cc2)cc1)NC(=O)CN1CCN(CC(=O)O)CCN(CC(=O)O)CCN(CC(=O)O)CC1)C(=O)N[C@@H](Cc1c[nH]c2ccccc12)C(=O)N[C@@H](CO)C(N)=O [[^177Lu]Lu-uPAR-03, metal not drawn] | 56 ± 8 | 13 ± 1 | 15 ± 1 | 1.5 ± 0.3 | 1.8 ± 0.3 | 0.31 ± 0.05 | 0.3 ± 0.01 | 4.8 ± 0.5 | 5.2 ± 0.1 | 1.8 ± 0.1 | 2 ± 0.1 | 4.1 ± 0.3 | 4.7 ± 0.2 | 3.1 ± 0.4 | 3.2 ± 0.2 | 7.5 ± 0.5 | 7.7 ± 0.7 | 1.3 ± 0.1 | 1.5 ± 0.1 | 1.7 ± 0.1 | tissue uptake at 4 h (in vivo; [10]): 4 ± 0.3 %ID/g; tissue uptake at 24 h (in vivo; [10]): 7.5 ± 0.2 %ID/g; tissue uptake at 24 h (in vivo; [17]): 1.9 ± 0.2 %ID/g; tissue uptake at 4 h (in vivo; [18]): 3.4 ± 0.4 %ID/g; tissue uptake at 24 h (in vivo; [18]): 3.6 ± 0.2 %ID/g; tissue uptake at 4 h (in vivo; [19]): 2.2 ± 0.2 %ID/g; tissue uptake at 24 h (in vivo; [19]): 3 ± 0.2 %ID/g; tissue uptake at 4 h (in vivo; [20]): 1.6 ± 0.1 %ID/g; tissue uptake at 24 h (in vivo; [20]): 1.8 ± 0.1 %ID/g; remaining at 1 h, 10 MBq/200 µL (in vitro [3]): 100%; remaining at 4 h, 10 MBq/200 µL (in vitro [3]): 99 ± 1%; remaining at 24 h, 10 MBq/200 µL (in vitro [3]): 98 ± 1%; remaining at 1 h, 10 MBq/200 µL (in vitro [4]): 100 ± 1%; remaining at 4 h, 10 MBq/200 µL (in vitro [4]): 99 ± 1%; remaining at 24 h, 10 MBq/200 µL (in vitro [4]): 99 ± 2%; logD (physchem): 0.37 ± 0.14
3 | CC(C)C[C@H](NC(=O)[C@H](Cc1ccc(O)cc1)NC(=O)[C@@H](CCCNC(=N)N)NC(=O)[C@@H](CO)NC(=O)[C@H](Cc1ccccc1)NC(=O)[C@H](CC1CCCCC1)NC(=O)[C@H](CC(=O)O)NC(=O)[C@H](CCCCNC(=O)CCOCCOCCOCCOCCNC(=O)CCCc1ccc(I)cc1)NC(=O)CN1CCN(CC(=O)O)CCN(CC(=O)O)CCN(CC(=O)O)CC1)C(=O)N[C@@H](Cc1c[nH]c2ccccc12)C(=O)N[C@@H](CO)C(N)=O [[^177Lu]Lu-uPAR-02, metal not drawn] | 32 ± 12 | 6 ± 0.5 | 16 ± 1 | 1.8 ± 0.2 | 1.2 ± 0.1 | 0.34 ± 0.03 | 0.13 ± 0.02 | 4.8 ± 0.2 | 2.5 ± 0.3 | 1.8 ± 0.2 | 0.84 ± 0.13 | 5.5 ± 0.2 | 3.6 ± 0.2 | 2.8 ± 0.3 | 1.6 ± 0.2 | 7.2 ± 0.3 | 4 ± 0.2 | 1.4 ± 0.1 | 0.9 ± 0.06 | 1.8 ± 0.1 | fold higher activity retention in the HEK-uPAR xenograft than [177Lu]Lu-DOTA-AE105 [5]: over 10 fold; fold higher xenograft-to-kidney ratio than [177Lu]Lu-DOTA-AE105 [5]: > 3 fold; tissue uptake at 4 h (in vivo; [21]): 11 ± 2 %ID/g; tissue uptake at 24 h (in vivo; [21]): 10 ± 3 %ID/g; tissue uptake at 24 h (in vivo; [17]): 0.92 ± 0.06 %ID/g; tissue uptake at 4 h (in vivo; [18]): 3.2 ± 0.4 %ID/g; tissue uptake at 24 h (in vivo; [18]): 1.8 ± 0.2 %ID/g; tissue uptake at 4 h (in vivo; [19]): 2.2 ± 0.1 %ID/g; tissue uptake at 24 h (in vivo; [19]): 2 ± 0.2 %ID/g; tissue uptake at 4 h (in vivo; [20]): 1.6 ± 0.3 %ID/g; tissue uptake at 24 h (in vivo; [20]): 0.69 ± 0.03 %ID/g; remaining at 1 h, 10 MBq/200 µL (in vitro [3]): 100 ± 1%; remaining at 4 h, 10 MBq/200 µL (in vitro [3]): 98 ± 1%; remaining at 24 h, 10 MBq/200 µL (in vitro [3]): 98 ± 2%; remaining at 1 h, 10 MBq/200 µL (in vitro [4]): 100 ± 1%; remaining at 4 h, 10 MBq/200 µL (in vitro [4]): 99 ± 1%; remaining at 24 h, 10 MBq/200 µL (in vitro [4]): 99 ± 1%; logD (physchem): 0.25 ± 0.02
